US20260008862A1, “Bispecific Anti-BCMA x Anti-CD3 Antibodies and Uses Thereof” (Regeneron Pharmaceuticals, Inc., priority 2018, published 2026)

How the values were obtained:
[1] = test system: BCMA-expressing MOLP-8 tumors; test: MOLP-8 + PBMC subcutaneous xenogenic tumor model, dose response (Example 13); format: in vivo, mouse
Protocol: To determine the in vivo efficacy of anti-BCMA×anti-CD3 bispecific antibodies (Abs), a xenogenic tumor study was performed. Immunodeficient NOD.Cg-Prkdc^scidIl2rg^tm1Wji/SzJ (NSG) mice were subcutaneously implanted with a mixture of 5×10^6 BCMA-expressing MOLP-8 human multiple myeloma tumor cells and 1×10^6 human peripheral blood mononuclear cells (PBMC) isolated from a normal, healthy donor. […] The mice were administered these Abs twice per week for a total of seven doses, and tumor growth was assessed over 56 days. While the BCMA^+ MOLP-8 tumors grew similarly in the vehicle- and CD3-binding control-treated mice, both BCMA×CD3 Abs that were tested prevented the growth of tumors in a dose-dependent manner in vivo.
Implantation and measurement of xenogenic tumors: NSG mice were subcutaneously implanted with a mixture of 5×10^6 BCMA-expressing MOLP-8 multiple myeloma cells and 1×10^6 PBMC derived from a normal, healthy donor. […] The mice were administered Abs twice per week for a total of seven doses. Tumor growth was measured by caliper twice per week for the duration of the experiment.
(§1) Calculation of xenogenic tumor growth and inhibition: In order to determine tumor volume by external caliper, the greatest longitudinal diameter (length in mm) and the greatest transverse diameter (width in mm) were determined. Tumor volumes based on caliper measurements were calculated by the formula: Volume (mm^3)=(length×width^2)/2.

[2] = test system: BCMA-expressing NCI-H929 tumors; test: NCI-H929 + PBMC xenogenic tumor model, immediate treatment, 4 mg/kg (Example 10); format: in vivo, mouse
Protocol: To determine the in vivo efficacy of BCMA×CD3 bispecific antibodies (Abs), a xenogenic tumor study was performed. Immunodeficient NOD.Cg-Prkdc^scidIl2rg^tm1Wji/SzJ (NSG) mice were subcutaneously implanted with a mixture of 10×10^6 BCMA-expressing NCI-H929 multiple myeloma cells and 0.5×10^6 human peripheral blood mononuclear cells (PBMC) isolated from a normal donor. […] The mice were administered Abs twice per week for a total of three weeks, and tumor growth was assessed over 40 days. While BCMA^+ tumors grew similarly in the vehicle-, isotype control-, and CD3-binding control-treated mice, both BCMA×CD3 Abs that were tested prevented the growth of tumors in vivo.
Implantation and measurement of syngeneic tumors: NSG mice were subcutaneously implanted with a mixture of 10×10^6 BCMA-expressing NCI-H929 multiple myeloma cells and 0.5×10^6 PBMC derived from a normal donor. […] The mice were administered Abs twice per week for a total of three weeks. Tumor growth was measured with calipers twice per week for the duration of the experiment. Mice were sacrificed 40 days after tumor implantation.
as §1, with “syngeneic” for “xenogenic”

[3] = test system: Jurkat/NFATLuc.3C7 cells + HEK293 (BCMA negative) cells; test: Jurkat/NFATLuc reporter bioassay with HEK293 cells; format: cell-based; settings: highest RLU / lowest RLU
Protocol: Activity of the anti-BCMA×anti-CD3 bispecific antibodies were assessed in a Jurkat/NFATLuc reporter bioassay utilizing several cell lines with varying levels of BCMA surface expression. The Jurkat cells were engineered to express an NFAT-luciferase reporter (Jurkat/NFATLuc.3C7), and 50,000 Jurkat reporter cells were combined with 50,000 BCMA positive (Daudi, MM1-S, NCI-H929, OPM-2, RPMI-8226, MOLP-8, or Raji) or BCMA negative (HEK293) cells in Thermo Nunclon delta 96 well white microwell plates (Thermo Scientific, Cat #136102) in 50 ul of assay media (RPMI media with 10% FBS and 1% P/S/G). Three-fold serial dilutions of the BCMA×CD3 bispecific antibodies (mAb25441 D or mAb25442D), or a bivalent anti-BCMA antibody (mAb21581) were immediately added in 50 μL of assay buffer. The plates were gently agitated and incubated in a 37° C., 5% CO2 incubator for 4-6 hours. NFAT-Luciferase activity was determined using Promega One-Glo (Cat #E6130) and a Perkin Elmer Envision plate reader. RLU were plotted in GraphPad Prism using a four-parameter logistic equation over a 12-point response curve to calculate EC50 values. […] The signal to noise (S:N) is determined by taking the ratio of the highest RLU on the curve to the lowest.

REGN5458: anti-BCMA×anti-CD3 bispecific antibody: BCMA HCVR of mAb21581 (SEQ 66), CD3 HCVR of mAb7221G (SEQ 90), common LCVR SEQ 82
Average Tumor Size (mm3) ± SEM on Day 3 ([1]; 0.04 mg/kg): 9.3 ± 2.4 mm3 | Average Tumor Size (mm3) ± SEM on Day 7 ([1]; 0.04 mg/kg): 18.3 ± 5.0 mm3 | Average Tumor Size (mm3) ± SEM on Day 10 ([1]; 0.04 mg/kg): 73.9 ± 25.7 mm3 | Average Tumor Size (mm3) ± SEM on Day 14 ([1]; 0.04 mg/kg): 255.4 ± 79.7 mm3 | Average Tumor Size (mm3) ± SEM on Day 17 ([1]; 0.04 mg/kg): 494.3 ± 144.3 mm3 | Average Tumor Size (mm3) ± SEM on Day 21 ([1]; 0.04 mg/kg): 1373.0 ± 366.6 mm3 | Average Tumor Size (mm3) ± SEM on Day 23 ([1]; 0.04 mg/kg): 1882.3 ± 551.5 mm3 | Average Tumor Size (mm3) ± SEM on Day 28 ([1]; 0.04 mg/kg): 2542.5 ± 613.3 mm3 | Average Tumor Size (mm3) ± SEM on Day 31 ([1]; 0.04 mg/kg): 2906.1 ± 532.6 mm3 | Average Tumor Size (mm3) ± SEM on Day 35 ([1]; 0.04 mg/kg): 3538.0 ± 0.0 mm3 | Average Tumor Size (mm3) ± SEM on Day 3 ([1]; 0.4 mg/kg): 13.5 ± 1.5 mm3 | Average Tumor Size (mm3) ± SEM on Day 10 ([1]; 0.4 mg/kg): 0 ± 0 mm3 | Average Tumor Size (mm3) ± SEM on Day 14 ([1]; 0.4 mg/kg): 0 ± 0 mm3 | Average Tumor Size (mm3) ± SEM on Day 17 ([1]; 0.4 mg/kg): 1.7 ± 1.7 mm3 | Average Tumor Size (mm3) ± SEM on Day 21 ([1]; 0.4 mg/kg): 5.3 ± 5.3 mm3 | Average Tumor Size (mm3) ± SEM on Day 23 ([1]; 0.4 mg/kg): 9.7 ± 9.7 mm3 | Average Tumor Size (mm3) ± SEM on Day 28 ([1]; 0.4 mg/kg): 47.4 ± 47.4 mm3 | Average Tumor Size (mm3) ± SEM on Day 31 ([1]; 0.4 mg/kg): 104.7 ± 92.6 mm3 | Average Tumor Size (mm3) ± SEM on Day 35 ([1]; 0.4 mg/kg): 375.1 ± 307.5 mm3 | Average Tumor Size (mm3) ± SEM on Day 42 ([1]; 0.4 mg/kg): 968.8 ± 689.2 mm3 | Average Tumor Size (mm3) ± SEM on Day 56 ([1]; 0.4 mg/kg): 1742.4 ± 635.2 mm3 | Average Tumor Size (mm3) ± SEM on Day 3 ([1]; 4 mg/kg): 12.5 ± 1.3 mm3 | Average Tumor Size (mm3) ± SEM on Day 7 ([1]; 4 mg/kg): 0 ± 0 mm3 | Average Tumor Size (mm3) ± SEM on Day 10 ([1]; 4 mg/kg): 0 ± 0 mm3 | Average Tumor Size (mm3) ± SEM on Day 14 ([1]; 4 mg/kg): 0 ± 0 mm3 | Average Tumor Size (mm3) ± SEM on Day 17 ([1]; 4 mg/kg): 14.5 ± 7.3 mm3 | Average Tumor Size (mm3) ± SEM on Day 21 ([1]; 4 mg/kg): 102.7 ± 66.2 mm3 | Average Tumor Size (mm3) ± SEM on Day 23 ([1]; 4 mg/kg): 193.3 ± 117.7 mm3 | Average Tumor Size (mm3) ± SEM on Day 28 ([1]; 4 mg/kg): 627.4 ± 318.1 mm3 | Average Tumor Size (mm3) ± SEM on Day 31 ([1]; 4 mg/kg): 1018.5 ± 498.3 mm3 | Average Tumor Size (mm3) ± SEM on Day 35 ([1]; 4 mg/kg): 1342.9 ± 629.6 mm3 | Average Tumor Size (mm3) ± SEM on Day 42 ([1]; 4 mg/kg): 2363.0 ± 890.2 mm3 | Average Tumor Size (mm3) ± SEM on Day 49 ([1]; 4 mg/kg, Day 49): 1683.5 ± 1683.5 mm3 | Average Tumor Size (mm3) ± SEM on Day 56 ([1]; 4 mg/kg): 3108.1 ± 3108.1 mm3 | Average Tumor Size (mm3) ± SEM on Day 4 [2]: 39.5 ± 9.1 mm3 | Average Tumor Size (mm3) ± SEM on Day 7 [2]: 0 ± 0 mm3 | Average Tumor Size (mm3) ± SEM on Day 11 [2]: 0 ± 0 mm3 | Average Tumor Size (mm3) ± SEM on Day 14 [2]: 0 ± 0 mm3 | Average Tumor Size (mm3) ± SEM on Day 18 [2]: 0 ± 0 mm3 | Average Tumor Size (mm3) ± SEM on Day 21 [2]: 0 ± 0 mm3 | Average Tumor Size (mm3) ± SEM on Day 28 [2]: 0 ± 0 mm3 | Average Tumor Size (mm3) ± SEM on Day 40 [2]: 0 ± 0 mm3 | S:N [3]: 1

REGN5459: anti-BCMA×anti-CD3 bispecific antibody: BCMA HCVR of mAb21581 (SEQ 66), CD3 HCVR of mAb7221G20 (SEQ 98), common LCVR SEQ 82
Average Tumor Size (mm3) ± SEM on Day 3 ([1]; 0.04 mg/kg): 11.7 ± 2.1 mm3 | Average Tumor Size (mm3) ± SEM on Day 7 ([1]; 0.04 mg/kg): 37.0 ± 5.7 mm3 | Average Tumor Size (mm3) ± SEM on Day 10 ([1]; 0.04 mg/kg): 104 ± 23.0 mm3 | Average Tumor Size (mm3) ± SEM on Day 14 ([1]; 0.04 mg/kg): 356.7 ± 84.6 mm3 | Average Tumor Size (mm3) ± SEM on Day 17 ([1]; 0.04 mg/kg): 645.6 ± 140.9 mm3 | Average Tumor Size (mm3) ± SEM on Day 21 ([1]; 0.04 mg/kg): 1442.4 ± 310.7 mm3 | Average Tumor Size (mm3) ± SEM on Day 23 ([1]; 0.04 mg/kg): 2124.4 ± 444.1 mm3 | Average Tumor Size (mm3) ± SEM on Day 28 ([1]; 0.04 mg/kg): 1939.3 ± 840.6 mm3 | Average Tumor Size (mm3) ± SEM on Day 31 ([1]; 0.04 mg/kg): 2688.7 ± 1176.6 mm3 | Average Tumor Size (mm3) ± SEM on Day 35 ([1]; 0.04 mg/kg): 612.1 ± 0 mm3 | Average Tumor Size (mm3) ± SEM on Day 3 ([1]; 0.4 mg/kg): 14.0 ± 1.6 mm3 | Average Tumor Size (mm3) ± SEM on Day 7 ([1]; 0.4 mg/kg): 0 ± 0 mm3 | Average Tumor Size (mm3) ± SEM on Day 10 ([1]; 0.4 mg/kg): 0 ± 0 mm3 | Average Tumor Size (mm3) ± SEM on Day 14 ([1]; 0.4 mg/kg): 0 ± 0 mm3 | Average Tumor Size (mm3) ± SEM on Day 17 ([1]; 0.4 mg/kg): 0 ± 0 mm3 | Average Tumor Size (mm3) ± SEM on Day 21 ([1]; 0.4 mg/kg): 0 ± 0 mm3 | Average Tumor Size (mm3) ± SEM on Day 23 ([1]; 0.4 mg/kg): 0 ± 0 mm3 | Average Tumor Size (mm3) ± SEM on Day 28 ([1]; 0.4 mg/kg): 0 ± 0 mm3 | Average Tumor Size (mm3) ± SEM on Day 31 ([1]; 0.4 mg/kg): 0 ± 0 mm3 | Average Tumor Size (mm3) ± SEM on Day 35 ([1]; 0.4 mg/kg): 0 ± 0 mm3 | Average Tumor Size (mm3) ± SEM on Day 42 ([1]; 0.4 mg/kg): 0 ± 0 mm3 | Average Tumor Size (mm3) ± SEM on Day 56 ([1]; 0.4 mg/kg): 0 ± 0 mm3 | Average Tumor Size (mm3) ± SEM on Day 3 ([1]; 4 mg/kg): 12.9 ± 1.3 mm3 | Average Tumor Size (mm3) ± SEM on Day 7 ([1]; 4 mg/kg): 0.6 ± 0.6 mm3 | Average Tumor Size (mm3) ± SEM on Day 10 ([1]; 4 mg/kg): 0 ± 0 mm3 | Average Tumor Size (mm3) ± SEM on Day 14 ([1]; 4 mg/kg): 0 ± 0 mm3 | Average Tumor Size (mm3) ± SEM on Day 17 ([1]; 4 mg/kg): 0 ± 0 mm3 | Average Tumor Size (mm3) ± SEM on Day 21 ([1]; 4 mg/kg): 0 ± 0 mm3 | Average Tumor Size (mm3) ± SEM on Day 23 ([1]; 4 mg/kg): 0 ± 0 mm3 | Average Tumor Size (mm3) ± SEM on Day 28 ([1]; 4 mg/kg): 1.9 ± 1.9 mm3 | Average Tumor Size (mm3) ± SEM on Day 31 ([1]; 4 mg/kg): 3.8 ± 3.0 mm3 | Average Tumor Size (mm3) ± SEM on Day 35 ([1]; 4 mg/kg): 9.3 ± 7.5 mm3 | Average Tumor Size (mm3) ± SEM on Day 42 ([1]; 4 mg/kg): 12.8 ± 12.8 mm3 | Average Tumor Size (mm3) ± SEM on Day 56 ([1]; 4 mg/kg): 17.2 ± 17.2 mm3 | Average Tumor Size (mm3) ± SEM on Day 4 [2]: 26.5 ± 6.2 mm3 | Average Tumor Size (mm3) ± SEM on Day 7 [2]: 0 ± 0 mm3 | Average Tumor Size (mm3) ± SEM on Day 11 [2]: 0 ± 0 mm3 | Average Tumor Size (mm3) ± SEM on Day 14 [2]: 0 ± 0 mm3 | Average Tumor Size (mm3) ± SEM on Day 18 [2]: 0 ± 0 mm3 | Average Tumor Size (mm3) ± SEM on Day 21 [2]: 0 ± 0 mm3 | Average Tumor Size (mm3) ± SEM on Day 28 [2]: 0 ± 0 mm3 | Average Tumor Size (mm3) ± SEM on Day 40 [2]: 0 ± 0 mm3 | S:N [3]: 1
